From patent US4962096A, “Heterocyclic glycerol derivatives and their use as anti-hypertensive agents” (Nippon Chemiphar Co., Ltd., priority 1987, dated 1990) come the findings set out here.

The test system of test [1] is PAF-induced platelet aggregation. Briefly: Inhibitory effect on PAF-induced platelet aggregation. The class given is cell-based. Particulars: rabbit PRP; PAF 1×10^-8 M, test concentration not readable. How it is done: In the same manner as above, a platelet rich plasma (PRP) and a platelet poor plasma (PPP) were prepared for performing the following experiment.
(§1) PRP was diluted with PPP to give a sample containing platelets at 300,000/mm^3.
10 μl of a test solution was added to 180 μl of PRP. To the resulting mixture was added 10 μl of a solution of a commercially available PAF (No.P-4904, available from Sigma Corp.) to give a concentration of 1×10^-8 M, and aggregation was observed. For the preparation of the test solution and the PAF solution, a saline solution containing 0.25% bovine serum albumin was employed.
The effect of the test sample for suppressing aggregation was obtained in terms of a degree of suppression of the maximum aggregation in the control PRP caused by the PAF.

Test [2] relates to Male Wistar rats. Briefly: Blood pressure reducing action: intravenous injection (MABP50). The class given is in vivo, rat. Particulars: anesthetized male Wistar rats, injection in saline with 0.25% bovine serum albumin, from dose-response curve; for ED (50 mmHg): Rattus norvegicus, iv, read-out: MABP50 (dose required for reducing a mean blood pressure by 50 mmHg). How it is done: Male Wistar rats (mean body weight: 420 g) were anesthetized by intraperitoneal injection of 50 mg/kg of pentobarbital sodium, and their blood pressures were measured at left femoral artery. Subsequently, a compound to be tested was dissolved in a saline solution containing 0.25% bovine serum albumin and injected into the rat through the right femoral artery.
A dose-response curve was prepared from the obtained values for each of the following compounds of the present invention to determine a dose required for reducing a mean blood pressure by 50 mmHg (MABP50).

The subject of test [3] is platelet. Nature of the test: Platelet aggregation action in platelet rich plasma. The class given is cell-based. Particulars: rabbit PRP, 300,000 platelets/mm^3, final concentration 2×10^-10 to 2×10^-4 M, unit inferred. How it is done:
A male Japanese white rabbit was anesthetized by pentobarbital, and a blood was collected in aqueous 3.13% sodium citrate solution at its carotid. The blood containing 1/10 volume ratio of the sodium citrate solution was treated in a conventional manner to give a platelet rich plasma (PRP) and a platelet poor plasma (PPP) for performing the following experiment.
as §1
Aggregation of platelet was determined by means of Platelet Aggregation Tracer PAT-4A(available from Niko Bioscience Co., Ltd., Japan). 10 μl of a test solution was added to 190 μl of PRP to give a final concentration of 2×10^-10 to 2×10^-4 M, and an aggregation curve is recorded. For the preparation of the test solution, a saline solution containing 0.25% bovine serum albumin.
According to the aggregation curve obtained for each of the following compound of the present invention, following EC50 value was obtained.

In test [4] the test system is Male spontaneously hypertensive rats. Nature of the test: Blood pressure reducing action: oral administration. Type of test: in vivo, rat. How it is done: Male spontaneously hypertensive rats (average body weight: 359 g) were anesthetized with ether. Blood pressure was measured for each rat through cannulation at its left femoral artery. A compound to be tested was dissolved in a distilled water and the resulting aqueous solution was administered orally.

The mark [5] stands for this setting: Oryctolagus cuniculus, Platelet.

For the compound “2-Acetyloxy-3-hexadecyloxypropyl 1-(1-fluorophenyl)-2-methylisoquinolinio-3-ylmethyl phosphate”, the “degree of suppression of the maximum aggregation caused by the PAF” value (shortened to “degree”) in test [1] is given as 100%.
What is called EC50 is the midpoint of the concentration-response curve. Turning to `CCCCCCCCCCCCCCCCOCC(COP(=O)([O-])OCC1CSC(c2ccccc2)[N+]1(C)C)OC(C)=O` (single isomer, unassigned) [S(Product A), 2-acetyloxy-3-hexadecyloxypropyl 3,3-dimethyl-2-phenyl-1,3-thiazolidinio-4-ylmethyl phosphate], the “MABP50 (dose required for reducing a mean blood pressure by 50 mmHg)” value in test [2] is 0.16 µg/kg. Further, in test [3] (setting [5]), the half-maximal effective concentration (EC50) is 0.67 µM.
On to `CCCCCCCCCCCCCCCCOCC(COP(=O)([O-])OCC1CSC(c2ccccc2)[N+]1(C)C)OC(C)=O` (single isomer, unassigned) [S(Product B), 2-acetyloxy-3-hexadecyloxypropyl 3,3-dimethyl-2-phenyl-1,3-thiazolidinio-4-ylmethyl phosphate], for which the “MABP50 (dose required for reducing a mean blood pressure by 50 mmHg)” value in test [2] was determined as 0.35 µg/kg. In test [3], this compound displayed an EC50 of 0.74 µM.
`CCCCCCCCCCCCCCCCOCC(COP(=O)([O-])OC1C[N+]2(C)CCC1CC2)OC(C)=O` (stereo not drawn) [A, 2-acetyloxy-3-hexadecyloxypropyl 1-methyl-1-azoniabicyclo[2,2,2]-3-octyl phosphate]: the ED (50 mmHg) in test [2] is 0.005 µg/kg. Also, the EC50 in test [3] (setting [5]) amounted to 0.00076 µM.
On the same counts, the results for `CCCCCCCCCCCCCCCCOCC(COP(=O)([O-])OC1CC2CCC(C1)[N+]2(C)C)OC(C)=O` (stereo not drawn) [B, 2-acetyloxy-3-hexadecyloxypropyl endo-8,8-dimethyl-8-azoniabicyclo[3,2,1]-3-octyl phosphate] are 0.12 µg/kg and 0.0023 µM.
Regarding `CCCCCCCCCCCCCCCCOC(C)C(COP(=O)([O-])OC1C[N+]2(C)CCC1CC2)OC(C)=O` (stereo not drawn) [C, 2-acetyloxy-3-hexadecyloxybutyl 1-methyl-1-azoniabicyclo[2,2,2]-3-octylphosphate], the ED (50 mmHg) in test [2] is 0.099 µg/kg. Besides, the “Change of Blood Pressure About 30 min. after Administration” value (“Change” below) in test [4] (3 mg/kg) is -64.5 mmHg. Besides, the EC50 in test [3] (setting [5]) worked out at 0.0052 µM.
For the compound `CCCCCCCCCCCCCCCCOCC(COP(=O)([O-])OCC1CCCC[N+]1(C)C)OC(C)=O` (stereo not drawn) [Compound E, 2-acetyloxy-3-hexadecyloxypropyl 1,1-dimethylpiperidinio-2-ylmethyl phosphate], in test [2], the ED (50 mmHg) is 0.132 µg/kg. Also, in test [3] (setting [5]), the EC50 was found to be 0.01 µM.
On the same counts, the results for `CCCCCCCCCCCCCCCCOCC(COP(=O)([O-])OCC1CCC[N+]1(C)C)OC(C)=O` (stereo not drawn) [D, 2-acetyloxy-3-hexadecyloxypropyl 1,1-dimethylpyrrolidinio-2-ylmethyl phosphate] are 0.024 µg/kg and 0.0005 µM.
On the same counts, the results for `CCCCCCCCCCCCCCCCOCC(COP(=O)([O-])OCC1CCC[N+](C)(C)C1)OC(C)=O` (stereo not drawn) [F, 2-acetyloxy-3-hexadecyloxypropyl 1,1-dimethylpiperidinio-3-ylmethyl phosphate] are 0.058 µg/kg and 0.0015 µM.
With `CCCCCCCCCCCCCCCCOCC(COP(=O)([O-])OCC1CC[N+](C)(C)CC1)OC(C)=O` (stereo not drawn) [G, 2-acetyloxy-3-hexadecyloxypropyl 1,1-dimethylpiperidinio-4-ylmethyl phosphate], the ED (50 mmHg) in test [2] was 0.97 µg/kg. In test [3] (setting [5]), this compound came in with an EC50 of 0.09 µM.
For `CCCCCCCCCCCCCCCCOCC(COP(=O)([O-])OCCC1CCC[N+]1(C)C)OC(C)=O` (stereo not drawn) [H, 2-acetyloxy-3-hexadecyloxypropyl 2-(1,1-dimethylpyrrolidinio-2-yl)ethylphosphate] the same measures were 0.058 µg/kg and 0.0024 µM.
With `CCCCCCCCCCCCCCCCOC(C)C(COP(=O)([O-])OC(c1ccccc1)C1CCC[N+]1(C)C)OCc1ccccc1` (stereo not drawn) [I, 2-Benzyloxy-3-hexadecyloxybutyl erythro-1,1-dimethylpyrrolidinio-2-ylphenylmethyl phosphate], the “degree” value in test [1] was determined as 100%.
Consider `CCCCCCCCCCCCCCCCOCC(COP(=O)([O-])OC(c1ccccc1)C1CCC[N+]1(C)C)OCc1ccccc1` (stereo not drawn) [J, 2-Benzyloxy-3-hexadecyloxypropyl erythro-1,1-dimethylpyrrolidinio-2-ylphenylmethyl phosphate], for which, in test [1], the “degree” value is recorded as 99%.
Still for that read-out and setting: the value for `CCCCCCCCCCCCCCCCOCC(COP(=O)([O-])OC(c1ccccc1)C1CCC[N+]1(C)C)OCc1ccccc1` (stereo not drawn) [K, 2-Benzyloxy-3-hexadecyloxypropyl threo-1,1-dimethylpyrrolidinio-2-ylphenylmethyl phosphate] was 73%; that for `CCCCCCCCCCCCCCCCOCC(COP(=O)([O-])OCC1CCCC[N+]1(C)C)OCc1ccccc1` (stereo not drawn) [L, 2-Benzyloxy-3-hexadecyloxypropyl 1,1-dimethylpiperidinio-2-ylmethyl phosphate] was 55%; that for `CCCCCCCCCCCCCCCCOCC(COP(=O)([O-])OC(c1ccccc1)C1CCC[N+]1(C)C)OC(C)=O` (stereo not drawn) [M, 2-Acetyloxy-3-hexadecyloxypropyl erythro-1,1-dimethylpyrrolidinio-2-ylphenylmethyl phosphate] was 100%.
As for `CCCCCCCCCCCCCCCCOCC(COP(=O)([O-])OCC1Cc2ccccc2C[N+]1(C)C)OC(C)=O` (stereo not drawn) [O, 2-acetyloxy-3-hexadecyloxypropyl 2,2-dimethyl-1,2,3,4-tetrahydroisoquinolinio-3-ylmethyl phosphate], in test [2], the ED (50 mmHg) was found to be 3.2 µg/kg. The compound further gave a concentration for a half-maximal effect (EC50) in test [3] (setting [5]) of 0.18 µM.
On to `CCCCCCCCCCCCCCCCOCC(COP(=O)([O-])OCC1CCc2ccccc2[N+]1(C)C)OC(C)=O` (stereo not drawn) [P, 2-acetyloxy-3-hexadecyloxypropyl 1,1-dimethyl-1,2,3,4-tetrahydroquinolinio-2-ylmethyl phosphate], for which, in test [2], the ED (50 mmHg) was 0.11 µg/kg. The same compound displayed an EC50 in test [3] (setting [5]) of 0.05 µM.
On the same counts, the results for `CCCCCCCCCCCCCCCCOCC(COP(=O)([O-])OCC1CSC[N+]1(C)C)OC(C)=O` (stereo not drawn) [Q, 2-acetyloxy-3-hexadecyloxypropyl 3,3-dimethyl-1,3-thiazolidinio-4-ylmethyl phosphate] are 0.032 µg/kg and 0.00052 µM.
`CCCCCCCCCCCCCCCCOCC(COP(=O)([O-])OCC1=CCC[N+](C)(C)C1)OC(C)=O` (stereo not drawn) [R, 2-acetyloxy-3-hexadecyloxypropyl 1,1-dimethyl-1,2,5,6-tetrahydropyridinio-3-ylmethyl phosphate]: the ED (50 mmHg) in test [2] was determined as 0.024 µg/kg.
As to `CCCCCCCCCCCCCCCCOCC(COP(=O)([O-])OCCc1sc[n+](C)c1C)OC(C)=O` (stereo not drawn) [T, 2-acetyloxy-3-hexadecyloxypropyl 3,4-dimethylthiazolio-5-ylethyl phosphate], in test [2], the ED (50 mmHg) was 0.00023 µg/kg. For the same compound, the “Change” value in test [4] (10 mg/kg) was -35.3 mmHg. This compound showed an EC50 in test [3] (setting [5]) of 0.0032 µM.
For `CCCCCCCCCCCCCCCCOCC(COP(=O)([O-])OCCc1ccc[n+](C)c1)OC(C)=O` (stereo not drawn) [U, 2-acetyloxy-3-hexadecyloxypropyl 1-methylpyridinio-3-ylethyl phosphate], the “MABP50 (dose required for reducing a mean blood pressure by 50 mmHg)” value in test [2] was determined as 0.195 µg/kg. In test [3], the EC50 stood at 0.085 µM.
Turning to `CCCCCCCCCCCCCCCCOC(C)C(COP(=O)([O-])OCC1=CCC[N+](C)(C)C1)OC(C)=O` (stereo not drawn) [V, 2-acetyloxy-3-hexadecyloxybutyl 1,1-dimethyl-1,2,5,6-tetrahydropyridinio-3-ylmethyl phosphate], the ED (50 mmHg) in test [2] is 0.64 µg/kg. In addition, the “Change” value in test [4] (3 mg/kg) is on record as -49.0 mmHg. This compound showed an EC50 in test [3] (setting [5]) of 0.077 µM.
For the compound `CCCCCCCCCCCCCCCCOC(C)C(COP(=O)([O-])OCCc1sc[n+](C)c1C)OC(C)=O` (stereo not drawn) [W, 2-acetyloxy-3-hexadecyloxybutyl 3,4-dimethylthiazolio-5-ylethyl phosphate], the ED (50 mmHg) in test [2] stood at 0.067 µg/kg. In test [4] (1 mg/kg), the “Change” value is -36.0 mmHg. Also, the midpoint of the response in test [3] (setting [5]), the EC50, lay at 0.073 µM.
